Assay results reported in the RepoRT retention time repository.

Assay: HILIC, Waters Atlantis Premier BEH Z-HILIC, 100 × 2.1 mm, 1.7 µm, 40 °C, 0.16 mL/min, estimated dead time 1.4 min; A: water + 20 mM ammonium carbonate + 5 µM medronic acid; B: 10% water + 90% acetonitrile + 2 mM ammonium carbonate + 0.5 µM medronic acid; gradient (min/%B) 0/97 18/55 18.1/20 21.5/20 22/97 23.5/97 25.5/97
Conditions: stereoisomer not certain

Row | Compound | LC retention time [min]
1 | CC(O)C(=O)O (configuration not stated) [Lactic Acid] | 3.29
2 | O=C1CC(C(=O)O)NC(=O)N1 (configuration not stated) [dihydroorotic acid] | 4.6
3 | Nc1ncnc2c1ncn2C1OC(COP(=O)(O)O)C(O)C1O (configuration not stated) [AMP] | 9.68
4 | NC(=O)C1=CN(C2OC(COP(=O)(O)OP(=O)(O)OCC3OC(n4cnc5c(N)ncnc54)C(O)C3O)C(O)C2O)C=CC1 (configuration not stated) [NADH] | 8.9
5 | O=C(O)CCC(O)C(=O)O (configuration not stated) [2-hydroxy glutaric acid] | 9.7
6 | Cc1cc2nc3c(=O)[nH]c(=O)nc-3n(CC(O)C(O)C(O)COP(=O)(O)OP(=O)(O)OCC3OC(n4cnc5c(N)ncnc54)C(O)C3O)c2cc1C (configuration not stated) [FAD] | 7.63
7 | CC(=O)NC1C(OP(=O)(O)OP(=O)(O)OCC2OC(n3ccc(=O)[nH]c3=O)C(O)C2O)OC(CO)C(O)C1O (configuration not stated) [UDP-GlcNAc] | 10.1
8 | NC(=O)c1ccc[n+](C2OC(COP(=O)(O)OP(=O)(O)OCC3OC(n4cnc5c(N)ncnc54)C(OP(=O)(O)O)C3O)C(O)C2O)c1 (configuration not stated) [NADP] | 13.3
9 | O=C(O)CCCCC1SCC2NC(=O)NC21 (configuration not stated) [Biotin] | 4.62
10 | CC(C)(COP(=O)(O)OP(=O)(O)OCC1OC(n2cnc3c(N)ncnc32)C(O)C1OP(=O)(O)O)C(O)C(=O)NCCC(=O)NCCS (configuration not stated) [CoenzymeA] | 12
11 | O=C(O)CC(C(=O)O)C(O)C(=O)O (configuration not stated) [Isocitric acid] | 13.6
12 | CCC(C)C(N)C(=O)O (configuration not stated) [Isoleucine] | 6.73
13 | O=C(CO)C(O)C(O)C(O)COP(=O)(O)O (configuration not stated) [Fructose 6-phosphate] | 11.5
14 | O=C(CO)COP(=O)(O)O [Triose phosphate] | 10.4
15 | OCC1OC(O)C(O)C(O)C1O (configuration not stated) [Hexose] | 7.87
16 | O=C(O)C(CO)OP(=O)(O)O (configuration not stated) [Phosphoglyceric acid A] | 12.6
17 | CC(C)CC(N)C(=O)O (configuration not stated) [Leucine] | 6.36
18 | O=C(O)CC(O)(CC(=O)O)C(=O)O [Citric acid] | 13.7
19 | O=C(O)CCC(=O)O [Succinic Acid] | 9.71
20 | C[N+](C)(C)CC(O)CC(=O)[O-] (configuration not stated) [Carnitine] | 10.1
21 | CCC(=O)OC(CC(=O)[O-])C[N+](C)(C)C (configuration not stated) [carnitine-C3] | 6.89
22 | NC(CCC(=O)O)C(=O)O (configuration not stated) [Glutamic acid] | 9.93
23 | O=P(O)(O)OCC1OC(O)C(O)C(O)C1O (configuration not stated) [Glucose-6-phosphate] | 12.5

Other lines, results leading:

Row | LC retention time [min] | Compound
24 | 19.4 | NCCCCC(N)C(=O)O (configuration not stated) [Lysine]
25 | 10.5 | NC(=O)c1ccc[n+](C2OC(COP(=O)(O)OP(=O)(O)OCC3OC(n4cnc5c(N)ncnc54)C(O)C3O)C(O)C2O)c1 (configuration not stated) [NAD]
26 | 19.2 | NC(N)=NCCCC(N)C(=O)O (configuration not stated) [Arginine]
27 | 9.15 | O=C(O)CCC(=O)C(=O)O [2-Oxoglutaric acid]
28 | 13.4 | C=C(OP(=O)(O)O)C(=O)O [PEP]
29 | 13.3 | Nc1ncnc2c1ncn2C1OC(COP(=O)(O)OP(=O)(O)OP(=O)(O)O)C(O)C1O (configuration not stated) [ATP]
30 | 15.7 | Nc1nc2c(ncn2C2OC(COP(=O)(O)OP(=O)(O)OP(=O)(O)O)C(O)C2O)c(=O)[nH]1 (configuration not stated) [GTP]
31 | 11.6 | Nc1ncnc2c1ncn2C1OC(COP(=O)(O)OP(=O)(O)O)C(O)C1O (configuration not stated) [ADP]
32 | 4.45 | Nc1ncnc2c1ncn2C1OC(CO)C(O)C1O (configuration not stated) [Adenosine]
33 | 10.6 | O=P(O)(O)OCC(O)CO (configuration not stated) [Glycerol-3-phosphate]
34 | 13.8 | NC(=O)C1=CN(C2OC(COP(=O)(O)OP(=O)(O)OCC3OC(n4cnc5c(N)ncnc54)C(OP(=O)(O)O)C3O)C(O)C2O)C=CC1 (configuration not stated) [NADPH]
35 | 10.6 | NC(=O)CCC(N)C(=O)O (configuration not stated) [Glutamine]
36 | 10.4 | CC(=O)SCCNC(=O)CCNC(=O)C(O)C(C)(C)COP(=O)(O)OP(=O)(O)OCC1OC(n2cnc3c(N)ncnc32)C(O)C1OP(=O)(O)O (configuration not stated) [Acetyl-CoA]
37 | 15.5 | O=P(O)(O)OCC1OC(O)(COP(=O)(O)O)C(O)C1O (configuration not stated) [Fructose-1,6-bisphosphate]
